These results are taken from patent US20060142239A1, “Potassium or sodium salt of (-)-2-(4-hydroxyphenyl)ethyl!-thio-3-'4-{4-'(methzlsulfonzl)oxy !phenoxy}phenyl!propanoic acid and their use in medicine” (priority 2003, published 2006).

The subject of experiment [1] is SC LS-174T tumours. As to the kind of experiment: Human LS-174T colon tumour xenografts in Nude mice, tumour growth delay. The class given is in vivo. The note with it: ZD6126 200 mg/kg IP, 5-FU 75 mg/kg IV, CPT-11 25 mg/kg IV; for MEDIAN TIME TO REACH TUMOUR SIZE OF 2 CM^3: SC LS-174T xenografts in Nude mice, weekly x3 (Days 1, 8, 15), in combinations ZD6126 2 hours after the other agent; for T - C (DAYS), tumour growth delay: difference in median time to reach 2 cm^3, treatment vs vehicle control, weekly x3. As to the method:
Human LS-174T Colon Tumour Xenografts in Nude Mice […] Mice were randomised into 6 groups of 15-18 mice per group. Group 1—control Group 2—received 3 weekly intraperitoneal (IP) injections of ZD6126 at 200 mg/kg on Days 1, 8 and 15 Group 3—received 3 weekly intravenous (IV) injections of 5-FU at 75 mg/kg on Days 1, 8 and 15 Group 4—received 3 weekly IV injections of CPT-11 alone at 25 mg/kg on Days 1, 8 and 15. Group 5—received 3 weekly IP injections of ZD6126 at 200 mg/kg on Days 1, 8 and 15 and 3 weekly IV injections of 5-FU at 75 mg/kg Days 1, 8 and 15. Group 6—received 3 weekly IP injections of ZD6126 at 200 mg/kg on Days 1, 8 and 15 and 3 weekly IV injections of CPT-11 at 25 mg/kg on Days 1, 8 and 15. In groups 5 and 6, when animals received both ZD6126 and CPT-11 or 5-FU on the same day, the ZD6126 was administered 2 hours after the CPT-11 or 5-FU. [table] For all animals, the tumour size was measured twice a week with calipers, and the tumour volume (mm^3) was estimated according to the formula: {[(Square root of Length×Width)×(Length×Width)]×0.5236}. The mice were sacrificed when tumours grew beyond 10% of bodyweight. Treatment efficacy was assessed in terms of the effects on the tumour volumes of treated mice relative to vehicle-treated mice and expressed as growth delay. Growth delay T-(C) was calculated as the difference in the median growth time of the treatment group (T) and the vehicle control group (C) to reach a tumor size of 2 cm^3.
(In general: Xenograft models place foreign cells or tissue in a host animal.)

For experiment [2], the system named is tumour vasculature. The note with it: reported in Proc. Am. Assoc. Cancer Res. 2000; 41: 329; cited from earlier work.

With `O=c1[nH]cc(F)c(=O)[nH]1` [5-FU, 5-fluorouracil], in experiment [1], the “MEDIAN TIME TO REACH TUMOUR SIZE OF 2 CM^3” value came out at 14 days and the “T - C (DAYS), tumour growth delay” value is reported as 5 days.
In the same order, the values of `CCc1c2c(nc3ccc(OC(=O)N4CCC(N5CCCCC5)CC4)cc13)-c1cc3c(c(=O)n1C2)COC(=O)[C@]3(O)CC` [CPT-11, irinotecan] are 17 days and 8 days.
Consider `COc1cc2c(c(OC)c1OC)-c1ccc(OP(=O)(O)O)cc1[C@@H](NC(C)=O)CC2` [ZD6126, (5S)-5-(acetylamino)-9,10,11-trimethoxy-6,7-dihydro-5H-dibenzo[a,c]cyclohepten-3-yl dihydrogen phosphate], for which, in experiment [1], the “MEDIAN TIME TO REACH TUMOUR SIZE OF 2 CM^3” value worked out at 17 days and the “T - C (DAYS), tumour growth delay” value stood at 8 days. Moreover, the “effect on tumour vasculature” value in experiment [2] was “selectively disrupts tumour vasculature leading to vessel occlusion and extensive tumour necrosis”.
